Patent US20230129485A1, “SYSTEM AND METHOD FOR DETERMINING MATERIAL PROPERTIES OF MOLECULAR SYSTEMS FROM AN AB-INITIO PARAMETERIZED FORCE-FIELD” (InterX, Inc., priority 2021, published 2023)
Where two headings read alike, the source gives them in different places.

Legend:
[1] = Free energy of hydration predicted with the QM-parameterized force field model (ARROW FF), classical MD and PIMD simulation in a water box; settings: for Arrow error: Table 5, error of Arrow PIMD8 hydration free energy vs experiment; for Arrow PIMD8 Error: absolute error vs Exp (hydration)
Method in brief: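 Solute decoupled from solvent in a 32×32×32 Å3 water box (PME, 9 Å cutoffs), electrostatics, exchange-repulsion and dispersion switched off together over 15 lambda points with soft-coring. Steepest-descent minimization, 50 ps equilibration, 1 ns NPT production at 1 atm; classical and path-integral MD. Free energy from BAR and TI.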

[2] = Free energy of hydration predicted by polarizable AMOEBA force field, from literature; settings: Table 5; error of AMOEBA hydration free energy vs experiment
[3] = experimental, cited from earlier work; for Exp (hydration): Table 5
[4] = Free energy of hydration predicted by General Amber Force Field (GAFF), from literature; settings: Table 5; error of GAFF hydration free energy vs experiment
[5] = CHEX/H2O partition coefficient, experimental, cited from earlier work; for Exp (log D): Table 3; for logD Exp (logD): Table 4
[6] = Free energy of hydration by Polarizable Continuum Model (PCM); settings: absolute error vs Exp (hydration)
Method in brief: (§1)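 Computed, not measured. COSMO: run in MolPro on the dataset. SMD/PCM: predicted values supplied externally. SMD, PCM, COSMO-RS restricted to the overlap with the QM-parameterized force field molecule set.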

[7] = Table 5; free energy of hydration, GAFF prediction taken from literature; cited from earlier work
[8] = experimental, cited from earlier work
[9] = implicit solvent model, values received; cited from earlier work
[10] = Free energy of hydration by Solvation Model Dielectric (SMD) implicit solvent model; settings: absolute error vs Exp (hydration)
Method in brief: as §1

[11] = Free energy of hydration by COSMO implicit solvent model (MolPro ver. 2012); settings: absolute error vs Exp (hydration)
Method in brief: as §1

[12] = implicit solvent model, values received; cited from earlier work; remark: listed apart in the source
[13] = Free energy of solvation in cyclohexane predicted with the QM-parameterized force field model (ARROW FF), MD and PIMD; settings: Table 4; for CHEX Arrow MD Error: error of MD cyclohexane solvation free energy vs experiment; for CHEX Arrow PIMD4 Error: error of PIMD4 cyclohexane solvation free energy vs experiment
Source text: Cyclohexane (CHEX) is nonpolar and equilibrates relatively quickly.
Particle-Mesh Ewald (PME) algorithm was used to compute the electrostatic interactions. A 32×32×32 grid mesh and 5th power spline interpolation order can be used to compute the inverse PME sum. 9 Å cutoffs were used to compute the direct PME sum as well as the exchange and dispersion interactions. Bulk corrections were applied to account for distance cut-off of dispersion interactions. Solvation free energies were computed by decoupling the interactions between the solute and the solvent molecules. Electrostatic, exchange-repulsion and dispersion interactions were switched off simultaneously using a lambda-dependent scaling (a scaling factor power=2 was used) and a soft-coring algorithm (maximal soft-coring radius=1.5 Å, soft-coring radius scaling factor power=1). 15 lambda points unequally spaced (X=0, 0.05, 0.1, 0.2, 0.3, 0.4, 0.5, 0.6, 0.7, 0.75, 0.8, 0.85, 0.9, 0.95, 1.0) were used to decouple the solute-solvent intermolecular interactions.
In some simulations of the QM-parameterized force field molecular simulation process, energy minimization (10,000 steps) using the steepest descent algorithm was initially performed on all the simulation systems. This was followed by a 50 ps equilibration and 1 ns production runs in the isothermal-isobaric ensemble (NPT). […] Pressure was maintained at 1 atm using a MTTK barostat (relaxation time=5 ps). A Multiple Time Step (MTS) algorithm was used to integrate the equations of motion both for the classical and path-integral runs. […] The calculations were performed using the QM-parameterized force field model.
Using the QM-parameterized force field model, the QM-parameterized force field device can compute or predict the solvation free energies using both the Bennett acceptance ratio (BAR) and thermodynamic integration (TI) method with <dH/dλ> values interpolated by cubic splines.

[14] = Free energy of hydration by COSMO-RS
Method in brief: as §1

[15] = CHEX/H2O partition coefficient (log D) predicted with the QM-parameterized force field model (ARROW FF)
Method in brief: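 Cyclohexane/water partition coefficients were predicted by molecular simulation with a QM-parameterized force field, with bonded force constants and equilibrium values fitted to MP2/aug-cc-pVTZ energies. Solutes carried neutral functional groups, and results from four independent groups were averaged.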

[16] = Table 5; free energy of hydration, AMOEBA prediction taken from literature; cited from earlier work
[17] = Table 3, absolute error of MD hydration free energy vs experiment
[18] = Table 3, absolute error of PIMD8 hydration free energy vs experiment
[19] = Table 4, error of MD hydration free energy vs experiment
[20] = Table 4, error of PIMD8 hydration free energy vs experiment
[21] = Table 3, free energy of hydration
[22] = Table 4, neutral amino-acid analogues
[23] = Table 3, free energy of solvation in cyclohexane
[24] = Table 4, solvation free energy in cyclohexane
[25] = Table 4, error of MD logD vs experiment
[26] = Table 4, error of PIMD logD vs experiment

Row | Structure (SMILES) | water Arrow MD Error [1, 17] [kcal/mol] | water Arrow PIMD8 Error [1, 18] [kcal/mol] | water Arrow MD Error [1, 19] [kcal/mol] | water Arrow PIMD8 Error [1, 20] [kcal/mol] | Arrow error [1] [kcal/mol] | Arrow PIMD8 Error [1] [kcal/mol] | AMOEBA error [2] [kcal/mol] | water Exp (hydration) [3, 21] [kcal/mol] | water Exp (hydration) [3, 22] [kcal/mol] | Exp (hydration) ([3]; free energy of hydration) [kcal/mol] | GAFF error [4] [kcal/mol] | logD Exp (logD) [5] | PCM Error [6] [kcal/mol] | GAFF [7] [kcal/mol] | CHEX Exp (solvation) [8, 23] [kcal/mol] | CHEX Exp (solvation) [8, 24] [kcal/mol] | COSMO/Molpro Error [11] [kcal/mol] | CHEX Arrow MD Error [13] [kcal/mol] | CHEX Arrow PIMD4 Error [13] [kcal/mol] | AMOEBA [16] [kcal/mol] | also measured
1 | CCCC [Butane] | 0.70 | 0.04 | 0.70 | 0.04 | 0.04 | 0.04 | 0.99 | 2.10 | 2.10 | 2.10 | 0.44 | 3.54 | 2.30 | 2.54 | -2.72 | -2.72 | 2.65 | 0.46 | 0.20 | 1.11 | Exp (log D) [5]: 3.54; PCM free energy of hydration [9]: -0.20 kcal/mol; SMD Error [10]: 0.10 kcal/mol; SMD free energy of hydration [12]: 2.00 kcal/mol; COSMO-RS error [14]: 0.03 kcal/mol; log D Arrow MD Error ([15]; Table 3, absolute error of MD log D vs experiment): 0.18; log D Arrow PIMD Error ([15]; Table 3, absolute error of PIMD log D vs experiment): 0.17; logD Arrow MD Error [15, 25]: 0.18; logD Arrow PIMD Error [15, 26]: 0.17
2 | CCSC [EthylMethylSulfide] | 0.47 | 0.11 | 0.47 | 0.11 | 0.11 | 0.11 | 0.48 | -1.5 | -1.5 | -1.50 | 1.84 | 1.67 | – | 0.34 | -3.78 | -3.78 | 2.70 | 0.83 | 0.51 | -1.98 | Exp (log D) [5]: 1.67; log D Arrow MD Error [15]: 0.27; log D Arrow PIMD Error [15]: 0.29; logD Arrow MD Error [15]: 0.27; logD Arrow PIMD Error [15]: 0.29
3 | CC(=O)O [AceticAcid] | 0.19 | 0.34 | 0.19 | 0.34 | 0.34 | 0.34 | 1.06 | -6.69 | -6.69 | -6.69 | 0.74 | – | 2.19 | -5.95 | -2.20 | -2.20 | 2.47 | 0.09 | 0.01 | -5.63 | PCM free energy of hydration [9]: -4.50 kcal/mol; SMD Error [10]: 0.99 kcal/mol; SMD free energy of hydration [12]: -5.70 kcal/mol; COSMO-RS error [14]: 0.22 kcal/mol
4 | CO [Methanol] | 0.28 | 0.35 | 0.28 | 0.35 | 0.33 | 0.35 | 0.32 | – | – | – | 0.74 | −2.80 | 1.91 | -4.37 | -1.29 | -1.29 | 1.37 | 0.42 | 0.24 | -4.79 | Exp (log D) [5]: −2.80; SMD Error [10]: 0.91 kcal/mol; COSMO-RS error [14]: 0.18 kcal/mol; log D Arrow MD Error [15]: 0.10; log D Arrow PIMD Error [15]: 0.43; logD Arrow MD Error [15]: 0.10; logD Arrow PIMD Error [15]: 0.43
5 | CS [MethaneThiol] | 0.79 | 0.43 | 0.79 | – | 0.43 | 0.43 | 0.98 | -1.219 | -1.219 | -1.24 | 0.41 | 0.91 | 0.88 | -0.83 | – | -2.46 | 2.71 | 0.39 | 0.30 | -0.26 | Exp (hydration) free energy of hydration [3]: -1.22 kcal/mol; PCM free energy of hydration [9]: -2.10 kcal/mol; SMD Error [10]: 0.42 kcal/mol; SMD free energy of hydration [12]: -0.80 kcal/mol; logD Arrow MD Error [15, 25]: 0.29; logD Arrow PIMD Error [15, 26]: 0.09
